Broadly, the EC50 is the concentration needed to bring the measured effect to its halfway point.

For the assay, the target named is mGluR4 (UniProt Q14833). As to the kind of experiment: mGluR4 potentiation assay: increase in response to an EC20 concentration of agonist (species not given). Type of assay: cell-based. Conditions: EC50 for potentiation of mGluR4; table does not state human or rat. The protocol:
The disclosed compounds and compositions can be evaluated for their ability to act as a potentiator of metabotropic glutamate receptor activity, in particular mGluR4 activity, by any suitable known methodology known in the art. For example, Chinese Hamster Ovary (CHO) cells transfected with human mGluR4 or […] co-transfected with rat mGluR4 and the G-protein regulated Inwardly Rectifying Potassium channel (GIRK) were plated in clear bottom assay plates for assay in a Hamamatsu FDSS Fluorometric Plate Reader. The cells were loaded with either a Ca2+-sensitive fluorescent dye or the thallium responsive dye and the plates were washed and placed into a suitable kinetic plate reader. For human mGluR4 assays, a fluorescence baseline was established for 3-5 seconds, the disclosed compounds were then added to the cells, and the response in cells was measured. Approximately two and a half minutes later, a concentration of mGluR4 orthosteric agonist (e.g. glutamate or L-AP4) eliciting approximately 20% (EC20) of the maximal agonist response was added to the cells, and the response was measured. Two minutes later, a concentration of mGluR4 agonist (e.g. glutamate or L-AP4) eliciting 80% (EC80) of the maximal agonist response was added to the cells, and the response was measured. For rat mGluR4/GIRK experiments, a baseline was established for approximately five seconds, disclosed compounds were added, and either an EC20 or EC80 concentration of agonist was added approximately two and one half minutes later. Potentiation of the agonist response of mGluR4 by the disclosed compounds was observed as an increase in response to the EC20 concentration of agonist in the presence of compound compared to the response to agonist in the absence of compound. Similarly, antagonism of the agonist response of mGluR4 by the disclosed compounds was observed as a decrease in response to the EC80 concentration of agonist in the presence of compound compared to the response to agonist in the absence of compound.
The above described assay operated in two modes. In the first mode, a range of concentrations of the disclosed compounds are added to cells, followed by a single fixed concentration of agonist. If the compound acts as a potentiator, an EC50 value for potentiation and a maximum extent of potentiation by the compound at this concentration of agonist is determined by non-linear curve fitting. If the compound acts as a noncompetitive antagonist, an IC50 value is determined by non-linear curve fitting. In the second mode, several fixed concentrations of the disclosed compounds are added to various wells on a plate, followed by a range in concentrations of agonist for each concentration of disclosed compound. The EC50 values for the agonist at each concentration of compound are determined by non-linear curve fitting. A decrease in the EC50 value of the agonist with increasing concentrations of the sample compound (a leftward shift of the agonist concentration-response curve) is an indication of the degree of mGluR4 potentiation at a given concentration of the sample compound. A decrease in the maximal response of the agonist with increasing concentrations of the sample compounds, with or without a rightward shift in agonist potency, is an indication of the degree of noncompetitive antagonism at mGluR4. The second mode also indicates whether the sample compounds also affect the maximum response to mGluR4 to agonists.
These compounds are positive allosteric modulators (potentiators) of human and rat mGluR4 and were selective for mGluR4 compared to the other seven subtypes of metabotropic glutamate receptors.
Consider `Cc1c2cc(Nc3n[nH]c4cccnc34)ccc2nn1C1CCCC1` [Example 68, N-(2-cyclopentyl-3-methyl-2H-indazol-5-yl)-1H-pyrazolo[4,3-b]pyridin-3-amine], for which the concentration for a half-maximal effect (EC50) is > 10000 nM.

For the compound `Cc1cc(Cn2nc(C)c3cc(Nc4n[nH]c5nccnc45)ccc32)no1` [Example 69, N-(3-methyl-1-((5-methylisoxazol-3-yl)methyl)-1H-indazol-5-yl)-1H-pyrazolo[3,4-b]pyrazin-3-amine], the half-maximal effective concentration (EC50) was determined as 145 nM.

For `Cc1cc(Cn2nc3ccc(Nc4n[nH]c5cccnc45)cc3c2C)no1` [Example 70, N-(3-methyl-2-((5-methylisoxazol-3-yl)methyl)-2H-indazol-5-yl)-1H-pyrazolo[4,3-b]pyridin-3-amine], the EC50 was 870 nM.

As to `Cc1nn(CC2CCC2)c2ccc(Nc3n[nH]c4ccccc34)cc12` [Example 71, N-(1-(cyclobutylmethyl)-3-methyl-1H-indazol-5-yl)-1H-indazol-3-amine], the EC50 amounted to 342 nM.

On to `Cc1nn(CC2CCC2)c2ccc(Nc3n[nH]c4cccnc34)cc12` [Example 72, N-(1-(cyclobutylmethyl)-3-methyl-1H-indazol-5-yl)-1H-pyrazolo[4,3-b]pyridin-3-amine], for which the EC50 was 47 nM.

In the case of `Cc1nn(CC2CCC2)c2ccc(Nc3n[nH]c4nccnc34)cc12` [Example 73, N-(1-(cyclobutylmethyl)-3-methyl-1H-indazol-5-yl)-1H-pyrazolo[3,4-b]pyrazin-3-amine], the EC50 stood at 186 nM.

For the compound `Cc1nn(C2CCCC2)c2ccc(Nc3n[nH]c4cccnc34)cc12` [Example 74, N-(1-cyclopentyl-3-methyl-1H-indazol-5-yl)-1H-pyrazolo[4,3-b]pyridin-3-amine], the EC50 was determined as 265 nM.

With `Cc1nn(CC2CCC2)c2ccc(Nc3n[nH]c4ncccc34)cc12` [Example 75, N-(1-(cyclobutylmethyl)-3-methyl-1H-indazol-5-yl)-1H-pyrazolo[3,4-b]pyridin-3-amine], the EC50 was found to be 187 nM.

As for `Cc1cc(Cn2nc(C)c3cc(Nc4n[nH]c5cccnc45)ccc32)no1` [Example 76, N-(3-methyl-1-((5-methylisoxazol-3-yl)methyl)-1H-indazol-5-yl)-1H-pyrazolo[4,3-b]pyridin-3-amine], the EC50 was found to be 51 nM.

In the case of `Cc1cc(Cn2nc(C)c3cc(Nc4n[nH]c5ncccc45)ccc32)no1` [Example 77, N-(3-methyl-1-((5-methylisoxazol-3-yl)methyl)-1H-indazol-5-yl)-1H-pyrazolo[3,4-b]pyridin-3-amine], the EC50 came to 157 nM.

For `Cc1cc(Cn2nc(C)c3cc(Nc4n[nH]c5ccccc45)ccc32)no1` [Example 78, N-(3-methyl-1-((5-methylisoxazol-3-yl)methyl)-1H-indazol-5-yl)-1H-indazol-3-amine], the EC50 came out at 129 nM.

`Cc1n[nH]c2ccc(Nc3n[nH]c4cccnc34)cc12` [Example 79]: the EC50 was 813 nM.

For `c1cnc2c(Nc3ccc4c(cnn4CC4CCC4)c3)n[nH]c2c1` [Example 80, N-(1-(cyclobutylmethyl)-1H-indazol-5-yl)-1H-pyrazolo[4,3-b]pyridin-3-amine], the EC50 came to 167 nM.

`c1cc2c(cnn2CC2CCC2)cc1Nc1n[nH]c2c1CCCC2` [Example 81, 1-(cyclobutylmethyl)-N-(4,5,6,7-tetrahydro-1H-indazol-3-yl)-1H-indazol-5-amine]: the EC50 is > 10000 nM.

For `Cc1cc(Cn2ncc3cc(Nc4n[nH]c5cccnc45)cc(Cl)c32)no1` [Example 82, N-(7-chloro-1-((5-methylisoxazol-3-yl)methyl)-1H-indazol-5-yl)-1H-pyrazolo[4,3-b]pyridin-3-amine], the concentration for a half-maximal effect (EC50) stood at 136 nM.

`Cn1cc2cc(Nc3n[nH]c4nccnc34)ccc2n1` [Example 83]: the EC50 was found to be 202 nM.

Take `Cn1ncc2cc(Nc3n[nH]c4nccnc34)ccc21` [Example 84]: the concentration for a half-maximal effect (EC50) worked out at 818 nM.

As for `c1cnc2c(Nc3ccc4c(cnn4CC4CCC4)c3)n[nH]c2n1` [Example 85, N-(1-(cyclobutylmethyl)-1H-indazol-5-yl)-1H-pyrazolo[3,4-b]pyrazin-3-amine], the 50% effective concentration (EC50) amounted to 57 nM.

Take `c1ccc2c(Nc3ccc4c(cnn4CC4CCC4)c3)n[nH]c2c1` [Example 86, N-(1-(cyclobutylmethyl)-1H-indazol-5-yl)-1H-indazol-3-amine]: the concentration for a half-maximal effect (EC50) is 51.4 nM.

As for `c1cnc2c(Nc3ccc4nn(CC5CCC5)cc4c3)n[nH]c2n1` [Example 87, N-(2-(cyclobutylmethyl)-2H-indazol-5-yl)-1H-pyrazolo[3,4-b]pyrazin-3-amine], the EC50 is 749 nM.

On to `c1cnc2c(Nc3ccc4[nH]ncc4c3)n[nH]c2c1` [Example 88, N-(1H-indazol-5-yl)-1H-pyrazolo[4,3-b]pyridin-3-amine], for which the concentration for a half-maximal effect (EC50) was 72 nM.

As to `c1cnc2c(Nc3ccc4nn(CC5CCC5)cc4c3)n[nH]c2c1` [Example 89, N-(2-(cyclobutylmethyl)-2H-indazol-5-yl)-1H-pyrazolo[4,3-b]pyridin-3-amine], the EC50 is > 10000 nM.

As to `Cc1nn(C2CCNCC2)c2ccc(Nc3n[nH]c4cccnc34)cc12` [Example 90, N-(3-methyl-1-(piperidin-4-yl)-1H-indazol-5-yl)-1H-pyrazolo[4,3-b]pyridin-3-amine], the concentration for a half-maximal effect (EC50) is > 10000 nM.

Regarding `CCCCCn1nc(C)c2cc(Nc3n[nH]c4cccnc34)ccc21` [Example 91], the EC50 stood at 19 nM.

Consider `Cc1nn(Cc2noc3ccccc23)c2ccc(Nc3n[nH]c4cccnc34)cc12` [Example 92, N-(1-(benzo[d]isoxazol-3-ylmethyl)-3-methyl-1H-indazol-5-yl)-1H-pyrazolo[4,3-b]pyridin-3-amine], for which the 50% effective concentration (EC50) was 81 nM.

For the compound `Cc1ccc(-n2nc(C)c3cc(Nc4n[nH]c5cccnc45)ccc32)cc1` [Example 93, N-(3-methyl-1-(p-tolyl)-1H-indazol-5-yl)-1H-pyrazolo[4,3-b]pyridin-3-amine], the EC50 was > 10000 nM.

On to `Cc1nn(CCO)c2ccc(Nc3n[nH]c4cccnc34)cc12` [Example 94, 2-(5-((1H-pyrazolo[4,3-b]pyridin-3-yl)amino)-3-methyl-1H-indazol-1-yl)ethan-1-ol], for which the EC50 is > 10000 nM.

With `CCCCCn1nc(C)c2cc(Nc3n[nH]c4nccnc34)ccc21` [Example 95, N-(3-methyl-1-pentyl-1H-indazol-5-yl)-1H-pyrazolo[3,4-b]pyrazin-3-amine], the EC50 was determined as 35 nM.

Turning to `[2H]C([2H])([2H])n1ncc2cc(Nc3n[nH]c4cccnc34)ccc21` [Example 96, N-(1-(methyl-d3)-1H-indazol-5-yl)-1H-pyrazolo[4,3-b]pyridin-3-amine], the EC50 amounted to 863 nM.

On to `Cc1nn(C(C)(C)C)c2ccc(Nc3n[nH]c4cccnc34)cc12` [Example 97, N-(1-(tert-butyl)-3-methyl-1H-indazol-5-yl)-1H-pyrazolo[4,3-b]pyridin-3-amine], for which the EC50 was 575 nM.

On to `Cc1c2cc(Nc3n[nH]c4cccnc34)ccc2nn1C(C)(C)C` [Example 98, N-(2-(tert-butyl)-3-methyl-2H-indazol-5-yl)-1H-pyrazolo[4,3-b]pyridin-3-amine], for which the EC50 is > 10000 nM.

As for `Cc1nn(C)c2ccc(Nc3n[nH]c4nccnc34)cc12` [Example 99, N-(1,3-dimethyl-1H-indazol-5-yl)-1H-pyrazolo[3,4-b]pyrazin-3-amine], the EC50 came out at 757 nM.

As to `Cc1nn(CC2CC(C3CC3)=NO2)c2ccc(Nc3n[nH]c4cccnc34)cc12` (centres unmarked) [Example 100, N-(1-((3-cyclopropyl-4,5-dihydroisoxazol-5-yl)methyl)-3-methyl-1H-indazol-5-yl)-1H-pyrazolo[4,3-b]pyridin-3-amine], the 50% effective concentration (EC50) turned out to be 258 nM.

Regarding `Cc1c2cc(Nc3n[nH]c4cccnc34)ccc2nn1C` [Example 101, N-(2,3-dimethyl-2H-indazol-5-yl)-1H-pyrazolo[4,3-b]pyridin-3-amine], the EC50 is > 10000 nM.

Turning to `CCC(C)n1nc(C)c2cc(Nc3n[nH]c4cccnc34)ccc21` (centres unmarked) [Example 102, N-(1-(sec-butyl)-3-methyl-1H-indazol-5-yl)-1H-pyrazolo[4,3-b]pyridin-3-amine], the EC50 worked out at 367 nM.
